PubChem BioAssay AID1963871 (Molecular Pharmacology Branch, DTP, NCI, 2024)

Test system: KRAS-mutant PDC multicell tumor spheroid viability
Experiment: Anticancer human tumor 521955-158-R2-J5-PDC patient-derived pancreatic carcinoma cell line growth inhibition [KRAS2]
Settings: for IC50: curve of first compound; for viability, T/C: stronger effect = lower value; active = viability on the fitted dose curve at most 10% of control; inactive = the rest
Method in brief: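 Combination screen of spheroid viability in tumor-cell co-cultures with endothelial (HUVEC) and mesenchymal stem cell stroma. Each agent was tested in half-log dilutions, topping at clinical Cmax or at 10 microM without a known Cmax.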

[1] = second compound 0.0316 µM, first compound 0.000316 µM
[2] = second compound 0.0316 µM, first compound 0.001 µM
[3] = second compound 0.0316 µM, first compound 0.00316 µM
[4] = second compound 0.0316 µM, first compound 0.01 µM
[5] = second compound 0.0316 µM, first compound 0.0316 µM
[6] = second compound 0.1 µM, first compound 0.000316 µM
[7] = second compound 0.1 µM, first compound 0.001 µM
[8] = second compound 0.1 µM, first compound 0.00316 µM
[9] = second compound 0.1 µM, first compound 0.01 µM
[10] = second compound 0.1 µM, first compound 0.0316 µM
[11] = second compound 0.316 µM, first compound 0.000316 µM
[12] = second compound 0.316 µM, first compound 0.001 µM
[13] = second compound 0.316 µM, first compound 0.00316 µM
[14] = second compound 0.316 µM, first compound 0.01 µM
[15] = second compound 0.316 µM, first compound 0.0316 µM
[16] = second compound 1 µM, first compound 0.000316 µM
[17] = second compound 1 µM, first compound 0.001 µM
[18] = second compound 1 µM, first compound 0.00316 µM
[19] = second compound 1 µM, first compound 0.01 µM
[20] = second compound 1 µM, first compound 0.0316 µM
[21] = second compound 3.16 µM, first compound 0.000316 µM
[22] = second compound 3.16 µM, first compound 0.001 µM
[23] = second compound 3.16 µM, first compound 0.00316 µM
[24] = second compound 3.16 µM, first compound 0.01 µM
[25] = second compound 3.16 µM, first compound 0.0316 µM
[26] = second compound 0.0316 µM, first compound 0.1 µM
[27] = second compound 0.1 µM, first compound 0.1 µM
[28] = second compound 0.316 µM, first compound 0.1 µM
[29] = second compound 1 µM, first compound 0.1 µM
[30] = second compound 3.16 µM, first compound 0.1 µM
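Also: viability read after seven days of drug exposure.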

CC(=O)Nc1cccc(-n2c(=O)n(C3CC3)c(=O)c3c(Nc4ccc(I)cc4F)n(C)c(=O)c(C)c32)c1 + C=CC(=O)N1CCN(c2nc(OCC3CCCN3C)nc3c2CCN(c2cccc4cccc(C)c24)C3)CC1CC#N
inactive: viability, T/C (second compound 0.0316 µM, first compound 0.0001 µM) 74.2% | viability, T/C [1] 44.9% | viability, T/C [2] 34.6% | viability, T/C [3] 26.5% | viability, T/C [4] 20.1% | viability, T/C [5] 15% | viability, T/C (second compound 0.1 µM, first compound 0.0001 µM) 61.9% | viability, T/C [6] 51.6% | viability, T/C [7] 30.3% | viability, T/C [8] 23.8% | viability, T/C [9] 18.4% | viability, T/C [10] 10.5% | viability, T/C (second compound 0.316 µM, first compound 0.0001 µM) 57.5% | viability, T/C [11] 46.9% | viability, T/C [12] 27.5% | viability, T/C [13] 21.7% | viability, T/C [14] 18.9% | viability, T/C [15] 8.09% | viability, T/C (second compound 1 µM, first compound 0.0001 µM) 69.7% | viability, T/C [16] 43.6% | viability, T/C [17] 27.8% | viability, T/C [18] 24.3% | viability, T/C [19] 18.2% | viability, T/C [20] 9.76%
0.289 nM: IC50 (second compound 0.1 µM)
0.245 nM: IC50 (second compound 1 µM)
0.288 nM: IC50 (second compound 0.0316 µM)
active: viability, T/C (second compound 3.16 µM, first compound 0.0001 µM) 3.74% | viability, T/C [21] 5.29% | viability, T/C [22] 0.31% | viability, T/C [23] 1.92% | viability, T/C [24] 0.67% | viability, T/C [25] 0.24%
0.194 nM: IC50 (second compound 0.316 µM)
< 0.1 nM: IC50 (second compound 3.16 µM)

CN(C)C/C=C/C(=O)Nc1cc2c(Nc3ccc(F)c(Cl)c3)ncnc2cc1O[C@H]1CCOC1 + C=CC(=O)N1CCN(c2nc(OCC3CCCN3C)nc3c2CCN(c2cccc4cccc(C)c24)C3)CC1CC#N
< 0.316 nM: IC50 (second compound 3.16 µM)
active: viability, T/C [21] 4.17% | viability, T/C [22] 3.27% | viability, T/C [23] 1.28% | viability, T/C [24] 1.27% | viability, T/C [25] 0.96% | viability, T/C [30] 0.29%
inactive: viability, T/C [1] 97.5% | viability, T/C [2] 104% | viability, T/C [3] 75.7% | viability, T/C [4] 73.5% | viability, T/C [5] 67.9% | viability, T/C [26] 65.6% | viability, T/C [6] 83.5% | viability, T/C [7] 89.3% | viability, T/C [8] 98.8% | viability, T/C [9] 70.5% | viability, T/C [10] 76.7% | viability, T/C [27] 72.4% | viability, T/C [11] 77.8% | viability, T/C [12] 73.2% | viability, T/C [13] 65.9% | viability, T/C [14] 56.7% | viability, T/C [15] 54.7% | viability, T/C [28] 53.6% | viability, T/C [16] 73.5% | viability, T/C [17] 85.1% | viability, T/C [18] 70.4% | viability, T/C [19] 65.1% | viability, T/C [20] 58.8% | viability, T/C [29] 54.4%
> 100 nM: IC50 (second compound 0.0316 µM) | IC50 (second compound 0.1 µM) | IC50 (second compound 0.316 µM) | IC50 (second compound 1 µM)

COC(=O)c1ccc2c(C(=Nc3ccc(N(C)C(=O)CN4CCN(C)CC4)cc3)c3ccccc3)c(O)[nH]c2c1 + C=CC(=O)N1CCN(c2nc(OCC3CCCN3C)nc3c2CCN(c2cccc4cccc(C)c24)C3)CC1CC#N
active: viability, T/C (second compound 0.0316 µM, first compound 3.16 µM) 9.24% | viability, T/C (second compound 0.0316 µM, first compound 10 µM) 0.33% | viability, T/C (second compound 0.1 µM, first compound 3.16 µM) 8.93% | viability, T/C (second compound 0.1 µM, first compound 10 µM) 0.33% | viability, T/C (second compound 0.316 µM, first compound 3.16 µM) 2.62% | viability, T/C (second compound 0.316 µM, first compound 10 µM) 1.9% | viability, T/C (second compound 1 µM, first compound 3.16 µM) 1.74% | viability, T/C (second compound 1 µM, first compound 10 µM) 0.25% | viability, T/C [25] 1.66% | viability, T/C [30] 0.72% | viability, T/C (second compound 3.16 µM, first compound 0.316 µM) 0.77% | viability, T/C (second compound 3.16 µM, first compound 1 µM) 0.34% | viability, T/C (second compound 3.16 µM, first compound 3.16 µM) 0.55% | viability, T/C (second compound 3.16 µM, first compound 10 µM) 0.44%
864 nM: IC50 (second compound 0.1 µM)
1160 nM: IC50 (second compound 0.0316 µM)
280 nM: IC50 (second compound 0.316 µM)
inactive: viability, T/C [5] 78% | viability, T/C [26] 67.5% | viability, T/C (second compound 0.0316 µM, first compound 0.316 µM) 75.1% | viability, T/C (second compound 0.0316 µM, first compound 1 µM) 55.9% | viability, T/C [10] 64.2% | viability, T/C [27] 69.8% | viability, T/C (second compound 0.1 µM, first compound 0.316 µM) 65.2% | viability, T/C (second compound 0.1 µM, first compound 1 µM) 47.7% | viability, T/C [15] 72.1% | viability, T/C [28] 69.5% | viability, T/C (second compound 0.316 µM, first compound 0.316 µM) 43.7% | viability, T/C (second compound 0.316 µM, first compound 1 µM) 28.6% | viability, T/C [20] 49.4% | viability, T/C [29] 50.6% | viability, T/C (second compound 1 µM, first compound 0.316 µM) 37.3% | viability, T/C (second compound 1 µM, first compound 1 µM) 26.4%
< 31.6 nM: IC50 (second compound 1 µM) | IC50 (second compound 3.16 µM)
